# According to PMC9506480, “Synthesis and Evaluation of Antiproliferative Activity, Topoisomerase IIα Inhibition, DNA Binding and Non-Clinical Toxicity of New Acridine–Thiosemicarbazone Derivatives” (Pharmaceuticals, 2022):
# Tests used:
# CT DNA = CT DNA binding by UV–Vis absorption spectroscopy; design: species or system calf; conditions: compound 40 µM, CT DNA 0 to 60 µM, Tris-HCl pH 7.4
# Description: Absorption spectroscopy is a convenient and simple method for probing the binding of small molecules to DNA. The interaction of selected acridine–thiosemicarbazone derivatives with CT DNA was studied in the 220–500 nm region. Binding constants (Kb) were calculated from [DNA]/(Ɛa − Ɛf) versus [DNA], in which Kb is given by the ratio of slope to the intercept. […] For this, the regions chosen were the ones with the highest absorption intensity above 300 nm, due to the lower interference in DNA absorption in this region (ESI, Figures S50 and S53).
# The concentration of the calf thymus, Type I, fibers (CT DNA), was determined based on the extinction coefficient of the absorbance at 260 nm (6600 L mol^−1 cm^−1). All compounds were dissolved in methanol (HPLC grade) at a concentration of 1 mmol L^−1 (stock solution). Working solutions were prepared by diluting the stock solution using Tris-HCl buffer (pH 7.4), with concentrations of 40 µmol L^−1. Under the optimized concentration, the compounds were titered with increasing concentrations of CT DNA (5 to 60 µmol L^−1). After shaking the system and incubating at room temperature for 10 min, the measurements were recorded using a JASCO J818 spectropolarimeter in the range of 220 to 500 nm at 298 K. The intrinsic bond constant (Kb) was obtained by adjusting the data according to the equation below:[DNA]/(Ɛa − Ɛf) = [DNA]/(Ɛb − Ɛf) + 1/[Kb (Ɛb − Ɛf)] where Ɛa, Ɛb and Ɛf are the apparent extinction coefficient of the compounds, the extinction coefficient of the compounds found in their […] and the extinction coefficient of the compounds when fully DNA-bound, respectively. The graph of [DNA]/(Ɛa − Ɛf) versus [DNA] was used to obtain the Kb from the ratio between the slope and the intercept, as previously described in the literature. Binding data were obtained using SigmaPlot 10.0 software. The study of possible DNA denaturation using methanol–water solutions was evaluated up to the maximum final concentration of methanol in the assays (6%) (ESI, Figures S50 and S53).
# [1] = tested on: B16-F10 (murine melanoma); assay: Alamar blue cytotoxicity assay, B16-F10; format: cell-based; conditions: Mus musculus, 72 h incubation
# Description: (§1) The in vitro cytotoxic activity of the compounds (Table 1) was evaluated against cancer cell lines HCT116 (human colon carcinoma), HepG2 (human hepatocellular carcinoma), B16F10 (murine melanoma carcinoma) and non-cancerous cell line MRC-5 (human lung fibroblast) using the Alamar blue assay after 72 h of incubation; doxorubicin (DOX) was used as a positive control. The unsubstituted derivatives on the acridine cores were encoded as CL, and the disubstituted derivatives as DL.
# (§2) The human cancer cell lines HCT116 (colon carcinoma) and HepG2 (hepatocellular carcinoma), the mouse cancer cell line B16-F10 (melanoma), and the non-cancerous human cell line MRC-5 (lung fibroblast) were obtained from the American Type Culture Collection (ATCC, Manassas, VA, USA) and cultured according to the ATCC animal cell culture guide. All cell lines tested negative for mycoplasma using a mycoplasma stain kit.
# (§3) Cell viability was measured using the Alamar blue assay, as previously described. Cells were seeded in 96-well plates for all experiments. The compounds were dissolved in dimethyl sulfoxide (DMSO, Sigma-Aldrich) and added to each well in eight serial concentrations ranging from 0.19 to 25 μg/mL. As a positive control, doxorubicin was used. After 72 h of treatment, 20 μL of resazurin (0.312 mg/mL) was added to each well. A SpectraMax 190 Micro-plate Reader was used to measure absorbances at 570 and 595 nm (Molecular Devices, Sunnyvale, CA, USA). Nonlinear regression with 95% confidence intervals (CI 95%) was used to calculate the inhibitory concentration of 50% (IC50) using GraphPad Prism software (Intuitive Software for Science; San Diego, CA, USA).
# Swiss mice = assay: Acute toxicity study (14 days), OECD guideline 423; format: in vivo; conditions: for Organ mass Heart (g) / Organ mass Kidneys (g) / Organ mass Lungs (g) / Organ mass Speleen (g) / Organ mass Liver (g): after acute toxicity study; for Organ mass Heart (g) / Organ mass Kidneys (g) / Organ mass Lungs (g) / Organ mass Speleen (g) / Food (g/day) / Water (mL/day) / Weight gain (g) / Organ mass Liver (g): 2000 mg/kg oral; for Food (g/day) / Water (mL/day) / Weight gain (g): during acute toxicity study; for DA/TA (dead animals/total animals) / Mortality (%) / Signs of Toxicity: single oral dose 2000 mg/kg, female mice, 14 days
# Description: Based on the low selectivity found in the in vitro cytotoxicity, we decided to perform a preclinical in vivo toxicological analysis on mice to understand the pharmacological profiles of the derivatives described herein. After oral administration of acridine–thiosemicarbazone derivatives to female mice, possible adverse clinical signs and mortality in the groups of animals submitted to the acute toxicity study were recorded (Table 6), as well as absolute body mass, food and water consumption, and the average masses of the organs of the animals treated with the compounds and the control group.
# An acute toxicity study was conducted according to Organization for Economic Co-operation and Development (OECD) guideline 423 (OECD 2001) with modifications (National Health Surveillance Agency Brazil, 2013). In principle, the method is not intended to allow an accurate calculation of the lethal dose (LD50), despite providing an estimate of its value; however, it allows a classification of the substance into categories according to the Globally Harmonized Classification System (GHS). The tests were carried out with the consent of the ethics council of the State University of Paraiba (process no. 008/2021, approved 9 November 2021). Swiss mice, three females per group, were subjected to single oral doses of 2000 mg/kg of acridine–thiosemicarbazone derivatives, and to the control group, we administered only the vehicle (12% Tween 80 solution in saline).
# After the end of treatment with acridine–thiosemicarbazone derivatives, the animals were anesthetized with a xylazine–ketamine solution of 0.2 mL/100 g (8.75 mL ketamine (100 mg/mL) and 1.25 mL xylazine (10 mg/mL)) as per Cornell University/Cornell Center for Animal Resources and Education protocol described by Flecknell (1996). After euthanasia, a macroscopic assessment of the external body surface, cavities (thoracic, abdominal and cranial) and organs (change in position, shape, size, color and consistency) was carried out. The absolute and relative weights of the brain, lungs, liver, heart, spleen and kidneys were also determined. Relative weight was calculated using the formula: relative organ weight (%) = (weight of organ/weight of mouse) × 100 [88, 89].
# [2] = tested on: HCT116 (human colon carcinoma); assay: Alamar blue cytotoxicity assay, HCT116; format: cell-based; conditions: HCT-116, 72 h incubation
# Description: as §1, §2, §3
SMILES,Hypochromic (%) (CT DNA),IC50 [1] [µM],Organ mass Heart (g) (Swiss mice),Organ mass Kidneys (g) (Swiss mice),Organ mass Lungs (g) (Swiss mice),Organ mass Speleen (g) (Swiss mice),Food (g/day) (Swiss mice),Water (mL/day) (Swiss mice),Weight gain (g) (Swiss mice),DA/TA (dead animals/total animals) (Swiss mice),Mortality (%) (Swiss mice),Signs of Toxicity (Swiss mice),IC50 [2] [µM],Organ mass Liver (g) (Swiss mice)
"Oc1ccc(/C=N/NC(=S)Nc2c3ccccc3nc3ccccc23)cc1 [CL-07, (E)-N-(acridin-9-yl)-2-(4-hydroxybenzylidene)hydrazine-1-carbothioamide]",25.52,19.8,"0,417±0,038 g","1,308±0,099 g","0,619±0,089 g","0,574±0,061 g","14,57±1,78 g/day","23,57±1,34 mL/day","1,33±0,27 g",0/3,0,None,39.7,
"COc1ccc2nc3cc(Cl)ccc3c(NC(=S)N/N=C/c3ccccc3)c2c1 [DL-01, (E)-2-benzylidene-N-(6-chloro-2-methoxyacridin-9-yl)hydrazine-1-carbothioamide]",12.89,39.6,"0,410±0,039 g","1,338±0,091 g","0,640±0,057 g","0,551±0,037 g","12,35±1,39 g/day","23,71±1,26 mL/day","0,69±0,58 g",0/3,0,Reduced feed consumption,> 60,"5,257±0,610 g"
"COc1ccc2nc3cc(Cl)ccc3c(NC(=S)N/N=C/c3cccc(O)c3)c2c1 [DL-08, (E)-N-(6-chloro-2-methoxyacridin-9-yl)-2-(3-hydroxybenzylidene)hydrazine-1-carbothioamide]",14.79,14.8,"0,427±0,035 g","1,355±0,062 g","0,646±0,032 g","0,412±0,033 g","15,21±0,97 g/day","25,28±0,46 mL/day","0,76±0,43 g",0/3,0,Hepatic steatosis,24.2,"5,619±0,259 g"
